Type in all cases: cell-based
For test [1], the target named is T1, NKX2-5 transcriptional activity (Mus musculus, UniProt P42582).
T1 construct: expressed in transfected cells; host or cells: COS-1
The test can be described thus: NKX2-5 luciferase reporter assay (3xNKE reporter, COS-1 cells). Particulars: for activity at 3 µM: COS-1, read-out: NKX.3µM. (Reporter assays use an easily measured gene product as a stand-in for the process of interest.)

Test [2] concerns the target T2, GATA4 transcriptional activity (Mus musculus, UniProt Q08369).
T2 construct: expressed in transfected cells; host or cells: COS-1
Kind of test: GATA4 luciferase reporter assay (tandem GATA-site reporter, COS-1 cells). The conditions noted are these: for activity at 3 µM: COS-1; for GATA4 (% of control) Mean ± SD: 10 μM, COS-1 cells, 24 h.

For test [3], the target named is T3, GATA4–NKX2-5 transcriptional synergy (Mus musculus, UniProt P42582+Q08369).
T3 construct: expressed in transfected cells; host or cells: COS-1
The test can be described thus: GATA4–NKX2-5 transcriptional synergy luciferase reporter assay (3xNKE reporter, COS-1 cells). Particulars: for activity at 3 µM / activity at 10 µM: COS-1; for Synergy (% of control) Mean ± SD: 10 μM, COS-1 cells, 24 h.

The mark [4] stands for this setting: 3 µM, luciferase reporter activity, % of control.
Where [5] appears, read: 3 µM, luciferase reporter activity relative to control.
The mark [6] stands for this setting: 10 µM, luciferase reporter activity relative to control.

Read-outs that look alike come from different tables or passages of the source.

T2 sequence (Q08369 whole entry): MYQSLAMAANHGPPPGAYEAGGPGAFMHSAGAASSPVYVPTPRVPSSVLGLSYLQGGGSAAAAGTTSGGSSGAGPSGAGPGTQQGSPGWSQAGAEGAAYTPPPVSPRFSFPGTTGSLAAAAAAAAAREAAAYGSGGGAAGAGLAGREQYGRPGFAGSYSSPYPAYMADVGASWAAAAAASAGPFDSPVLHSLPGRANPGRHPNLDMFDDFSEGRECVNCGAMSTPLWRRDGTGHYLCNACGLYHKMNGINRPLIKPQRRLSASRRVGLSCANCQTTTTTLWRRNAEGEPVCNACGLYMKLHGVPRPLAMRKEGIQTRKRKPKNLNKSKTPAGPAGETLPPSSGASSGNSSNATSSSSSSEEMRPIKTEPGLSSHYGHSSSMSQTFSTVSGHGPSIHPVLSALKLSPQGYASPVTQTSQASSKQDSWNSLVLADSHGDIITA
T3 sequence (Q08369 whole entry): as above
T3 sequence (P42582 whole entry): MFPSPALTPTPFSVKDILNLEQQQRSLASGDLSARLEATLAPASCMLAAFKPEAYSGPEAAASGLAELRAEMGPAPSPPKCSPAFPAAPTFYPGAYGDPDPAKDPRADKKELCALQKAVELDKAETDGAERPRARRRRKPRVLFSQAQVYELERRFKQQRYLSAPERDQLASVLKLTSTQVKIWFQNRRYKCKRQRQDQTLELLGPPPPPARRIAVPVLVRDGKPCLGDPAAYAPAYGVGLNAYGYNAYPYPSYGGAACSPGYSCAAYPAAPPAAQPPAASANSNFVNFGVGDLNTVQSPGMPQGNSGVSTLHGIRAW
T1 sequence (P42582 whole entry): as above

With `CCN(CC)c1ccc(NC(=O)c2c(-c3ccccc3)noc2C)cc1` [Compound 1, N-[4-(Diethylamino)phenyl]-5-methyl-3-phenylisoxazole-4-carboxamide], the activity at 3 µM in test [1] (setting [4]) stood at 76%; in test [2] (setting [4]) it was 92.1%; in test [3] (setting [4]), 73.7%.

As for `CCN(CC)c1ccc(NC(=O)c2cnsc2)cc1` [Compound 47s], the activity at 3 µM in test [1] (setting [5]) stood at 41.8%; in test [2] (setting [5]), 128%; in test [3] (setting [5]), 66.9%.

As to `COc1ccc(-c2cc(NC(=O)c3ccc(C(C)(C)C)cc3)n[nH]2)cc1` [Compound 72], the activity at 3 µM in test [1] (setting [5]) came out at 74.8%; in test [2] (setting [5]), 70.5%; in test [3] (setting [5]), 66%. Moreover, in test [2], the “GATA4 (% of control) Mean ± SD” value is on record as 40 % of control. Moreover, the “effect on GATA4–NKX2-5 transcriptional synergy (in words)” value in test [3] is recorded as “inhibition potency”. Besides, the activity at 10 µM in test [3] (setting [6]) was 49.5%.

Turning to “N-[4-(Diethylamino)phenyl]-3-methyl-5-(4-methyl-1,2,3-thiadiazol-5-yl)isoxazole-4-carboxamide [Compound 47c]”, the NKX.3µM in test [1] (setting [5]) is 33.64. The “NKX2-5 (% of control) Mean ± SD” value in test [1] (10 μM, COS-1 cells, 24 h) was 21 ± 0.88 % of control. For the same compound, in test [1] (setting [6]), the NKX.10µM is listed as 20.92. Further, the GATA.3µM in test [2] (setting [5]) came out at 61.94. In addition, the “GATA4 (% of control) Mean ± SD” value in test [2] is reported as 68 ± 9.1 % of control. Also, the GATA.10µM in test [2] (setting [6]) is given as 68.28. In addition, the Synergy.3µM in test [3] (setting [5]) is listed as 45.37. The “Synergy (% of control) Mean ± SD” value in test [3] is recorded as 24 ± 0.9 % of control. For the same compound, in test [3] (setting [6]), the Synergy.10µM was found to be 23.55.

For `Cc1onc(-c2ccccc2)c1COc1ccc(C(=O)OCCC#N)cc1` [Compound 35a, 2-Cyanoethyl 4-[(5-Methyl-3-phenylisoxazol-4-yl)methoxy]benzoate], the activity at 3 µM in test [1] (setting [5]) was found to be 39.5%; in test [2] (setting [5]) it was 46.9%; in test [3] (setting [5]), 27.5%.

`CCC(=O)N(Cc1ccc(N(CC)CC)cc1)c1c(-c2ccccc2)noc1C` [Compound 58]: the activity at 3 µM was determined as 73.7% in test [1] (setting [5]) and 70.3% in test [2] (setting [5]). In test [3] (setting [6]), the activity at 10 µM amounted to 22.3%.

Consider `Cc1onc(-c2ccccc2)c1C(=O)N(C1=NC(C)CS1)c1ccc(Cl)cc1` (centres unmarked) [Compound 2], for which the activity at 3 µM is 102% in test [1] (setting [4]), 145% in test [2] (setting [4]) and 130% in test [3] (setting [4]). Besides, in test [3], the “Synergy (% of control) Mean ± SD” value is 170 % of control. Besides, in test [3] (10 µM, luciferase reporter activity, % of control), the activity at 10 µM was 166%.

For the origin of these results see PMC7076710, “Synthesis, Identification, and Structure–Activity Relationship Analysis of GATA4 and NKX2-5 Protein–Protein Interaction Modulators” (Journal of Medicinal Chemistry, 2019).
